Data: the NIST ThermoML archive (doi:10.1016/j.jct.2013.04.017)

Experiment: mn = molality of the nth substance listed, in mol/kg
Conditions: 101 kPa, Liquid, fixed-path interferometer

O=C(O)CC(O)(CC(=O)O)C(=O)O [citric acid] + O
speed of sound [m/s]
Conditions	288.15 K	293.15 K	298.15 K	303.15 K	308.15 K	313.15 K	318.15 K	323.15 K
m1 = 0.1003	1469.9	1485.9	1499.4	1510.9	1521	1529.8	1537.2	1542.6
m1 = 0.2504	1477.4	1492.5	1505.5	1516.2	1525.8	1533.9	1540.5	1545.9
m1 = 0.5006	1490.5	1504	1516.1	1525.7	1533.9	1541.2	1546.1	1550.7
m1 = 0.9988	1515	1526.4	1535.8	1543.3	1549.4	1554.9	1558.2	1561.1
m1 = 1.502	1538	1547.1	1554.4	1560.8	1565.6	1569.5	1572	1573.3
m1 = 2.023	1560.3	1567.1	1572.5	1576.7	1579.8	1582.2	1583.7	1582.6
m1 = 2.502	1578.8	1584.1	1587.9	1590.5	1592.4	1593.7	1593.9	1592.9
m1 = 3.006	1595.4	1598.9	1603	1603	1603.6	1603.8	1599.9	1598.2
m1 = 3.505	1613.1	1615.3	1616.7	1615.6	1615.2	1614.2	1612.6	1609.7
m1 = 3.998	1626.2	1628.7	1629.1	1626.7	1622.6	1621	1618.9	1615.4
m1 = 4.506	1640.7	1636.7	1641	1637.8	1635.5	1632.7	1629.6	1625.3
m1 = 4.997	1654.7	1653.3	1651.3	1648.6	1640.1	1635.7	1632.1	1626.1
